Measured values taken from article PMC11391541, “Target-Directed Dynamic Combinatorial Chemistry Affords Binders of Mycobacterium tuberculosis IspE” (ACS Omega, 2024).
In brackets after ≈: the same amount, converted by molar mass. Several values for one entry are separate records, joined by “and”; a condition that tells them apart may be missing. Equal values may be shown once.

What was measured:
[1] = solubility in M. tuberculosis 7H9 growth medium; format: physicochemical; details: M. tuberculosis 7H9 growth medium, plasma or biological fluid, kinetic from dmso stock; Mtb 7H9 growth medium
Method: Prior to biological evaluation of the tdDCC hits, we tested their solubility in a standard buffer as well as in M. tuberculosis 7H9 growth medium. […] Regrettably, with 3.3 μM the least soluble compound is E1, making our most amplified and promising compound unsuitable for biological evaluation. We assessed the solubility in Mtb growth medium given that it is a complex, nutrient-rich environment with a distinct solubility profile. However, the trend continued, only seven hits are soluble at 8 μM or above, the remaining five compounds, including E1, were not eligible for antitubercular activity testing (Table 1).
Determination of in vitro anti-tubercular activity and solubility in 7H9 medium Anti-tubercular tests were performed as previously described .1 In brief, 7H9 complete medium (BD Difco; Becton Dickinson, Maryland,USA) supplemented with 10% OADC (BD), 0.2% glycerol, and 0.05% Tween80 as previously described ,3 was used to culture Mycobacterium tuberculosis (Mtb) strain H37Rv (ATCC 25618) carrying a mCherry -expressing plasmid (pCherry10 ).4 Cultures were harvested at mid-log phase and frozen in aliquots at – 80 °C. Prior to testing aliquots were thawed followed by centrifugation and the pellet was resuspended in 7H9 medium with 10% OADC (without glycerol and Tween80). This was further thoroughly resuspended by passing it through a syringe with a 26 -gauge needle to avoid clumping of the bacteria. 2×10^5 CFU (colony forming units) were then cultured in a total volume of 100 μl culture medium (triplicates) to test the non-precipitating compounds for the anti-tubercular activity at the concentrations indicated. For these assays, 96-well flat clear bottom black polystyrene microplates (Corning® CellBIND®, Merck, New York, USA) wer e used. Each plate had Rifampicin (at 1 μg/ml and 0.1 μg/ml) (National Reference Center, Borstel) as a reference compound. Plates were sealed with an air -permeable membrane (Porvair Sciences, Wrexham, UK) in a 37 °C incubator with mild agitation (TiMix5, Edmund Bühler, Germany). The activity of compounds was determined after 7 days by measuring the bacterial growth as relative light units (RLU) from the fluorescence intensity obtained at an excitation wavelength of 575 nm and an emission wavelength of 635 n m in a microplate reader (Synergy 2, BioTek Instruments, Vermont, USA). Two independent experiments (each in triplicates) were performed, and all values were normalized to untreated control sample (100%) in each experiment.
To obtain information regarding the toxicity of our compounds, their impact on the viability of human cells was investigated. HepG2 cells (2x10^4 cells per well) were seeded in 96 -well, flat-bottomed culture plates in 100 µL culture medium (DMEM containing 10% fetal calve serum, 1% penicillin -streptomycin). Twenty-four hours after seeding the cells, medium was removed and replaced by medium containing test compounds in a final DMSO concentration of 1%. Compounds were tested in duplicates at a single concentration or, for CC50 determination, at 8 concentrations that were prepared via 2 -fold serial dilutions in 1% DMSO/medium. Epirubicin and doxorubicin were used as positive controls in serial dilutions starting from 10 µM, and rifampicin was used as a negative control (at 100 µM). The living cell mass was determined 48 h after treatment with compounds by adding 0.1 volumes of 3 -(4,5-dimethylthiazol-2-yl)-2,5-diphenyltetrazolium bromide (MTT) solution (5 mg/mL sterile PBS) (Sigma, St. Louis, MO) to the wells. After incubating the cells for 30 min at 37 °C (atmosphere containing 5% CO2), medium was removed and MTT crystals were dissolved in 75 µL of a solution containing 10% SDS and 0.5% acetic acid in DMSO. The optical density (OD) of the samples was determined photometrically at 570 nm in a PHERAstar Omega plate reader (BMG labtech, Ortenberg, Germany). To obtain percent viability for each sample, their ODs were related to those of DMSO controls. […]

[2] = target: T1, MtbIspE (Mycobacterium tuberculosis, UniProt P9WKG7); test: MtbIspE binding study via MicroScale Thermophoresis (MST); details: for MtbIspE binding at 20 μM: MST, 20 μM ligand, 200 nM MtbIspE, triplicate, qualitative
T1 sequence (P9WKG7 whole entry): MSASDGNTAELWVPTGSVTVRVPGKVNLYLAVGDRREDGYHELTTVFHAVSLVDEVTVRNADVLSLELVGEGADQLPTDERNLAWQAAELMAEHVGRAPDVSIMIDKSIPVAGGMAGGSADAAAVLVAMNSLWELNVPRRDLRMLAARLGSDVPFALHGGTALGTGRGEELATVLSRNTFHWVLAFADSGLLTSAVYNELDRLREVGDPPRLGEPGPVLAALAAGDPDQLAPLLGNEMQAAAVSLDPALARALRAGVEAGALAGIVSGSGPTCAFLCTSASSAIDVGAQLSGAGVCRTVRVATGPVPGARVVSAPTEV

[3] = target: T1, MtbIspE; test: MtbIspE binding study via thermal shift assay; details: read-out: MtbIspE ΔTm at 20 μM
[4] = tested on: MtbH37Rv; format: cell-based, Mycobacterium tuberculosis
[5] = tested on: EcTolC; test: microbe, parasite or virus in culture; format: cell-based; details: Escherichia coli, 18 h, LB medium, read-out: EcTolC %inh. At 50 μM
[6] = tested on: EcK12; test: E. coli growth inhibition, wild-type strain K12; format: cell-based, Escherichia coli; details: 18 h, LB medium; for inhibition at 50 µM: Escherichia coli, read-out: EcK12 %inh. At 50 μM
[7] = physchem; details: aqueous with cosolvent or surfactant or cyclodextrin, kinetic from dmso stock, solubility 5% DMSO in PBS
[8] = in vitro; details: human, HepG2 CC50, HepG2, 48 h, MTT

Structure (SMILES)	solubility [1] [µM]	MtbIspE binding at 20 μM [2]	ΔTm at 20 µM [3] [°C]	MtbH37Rv MIC90 [4]	inhibition at 50 µM [5] [%]	inhibition at 50 µM [6] [%]	solubility at 5 min [7] [µM]	CC50 [8] [µM]	MtbIspE binding in saturation MST experiment ([2]; saturation MST experiment)	EcK12 %inh. At 50 μM [6]
O=C(N/N=C/c1ccc(C(F)(F)F)cc1)c1cccc(Cl)c1 [K4, (E)-3-Chloro-N′-(4-(trifluoromethyl)benzylidene)benzohydrazide]	8	binding in only one measurement and 1/3	0.7	no inh. at max. sol.	38 ± 4	12 ± 4	21 ± 6 (≈ 6.86 µg/mL)	> 50		
O=C(N/N=C/c1cc(Cl)ccc1O)c1ccncc1 [L1, (E)-N′-(5-Chloro-2-hydroxybenzylidene)isonicotinohydrazide]	16	did not bind and No	< 0.3	no inh. at max. sol.	52 ± 3	18 ± 6	108 ± 3 (≈ 29.8 µg/mL)	~50	no binding	appreciable effect
COc1ccc(-c2cc(/C=N/NC(=O)c3cc(CC(C)C)n[nH]3)no2)cc1 [D6, (E)-3-Isobutyl-N′-((5-(4-methoxyphenyl)isoxazol-3-yl)methylene)-1H-pyrazole-5-carbohydrazide]	16	No	< 0.3	no inh. at max. sol.	39 ± 6	< 10	20 ± 10 (≈ 7.35 µg/mL)	> 50		
